Where a SMILES comes first, the peptide text is derived from it.
Details: acidic group

Row | SMILES | pKa
1 | C[C@H]1O[C@H](O[C@H]2CC[C@H]([n+]3ccc(N)nc3O)O[C@@H]2C)[C@H](O)[C@@H](O)[C@@H]1[NH+](C)C | 3.9
2 | Cc1ccc(NS(=O)(=O)c2ccccc2)cc1 | 8.63
3 | COc1ccc(O)c(C)c1 | 10.2
4 | Oc1ccc(/N=N/c2nc3ccccc3s2)c2cccnc12 | 7.2
5 | C[NH2+]CCCNC(=O)/C=N/O | 8.61
6 | O=C([O-])C1(C(=O)O)CCCC1 | 6.08
7 | O=C(O)CCc1ccco1 | 4.36
8 | [NH3+]CCCCCCCC(=O)O | 4.5
9 | O[n+]1c2ccccc2cc2ccccc21 | 1.37
10 | O=C(O)c1ccc(Cl)c([N+](=O)[O-])c1 | 3.33
11 | CC(c1cccc([N+](=O)[O-])c1)[N+](=O)[O-] (stereo not drawn) | 6.67
12 | O=C(O)CCCC(=O)NOCc1ccccc1 | 4.7
13 | CCCCSC(=N)c1ccccc1 | 8.21
14 | O=C(O)c1[nH]c[nH+]c1C(=O)[O-] | 4.27
15 | Cc1nn(-c2ccccc2)cc1C(=O)O | 4.58
16 | CC(=O)CC(=S)Nc1ccccc1 | 7.5
17 | O=C(O)CCCOC(=O)CCCBr | 4.6
18 | O=C(O)c1c(O)cccc1[N+](=O)[O-] | 2.24
19 | O=C(O)Cc1cccc2ccccc12 | 4.24
20 | O/C(=C/[n+]1ccccc1)c1ccccc1 | 4.8
21 | Oc1cc[nH+]cc1O | 3.6
22 | CC(Cl)C(=O)O (stereo not drawn) | 2.88
23 | Cc1ccc(S(=O)(=O)N(CCNCC(=O)[O-])CC(=O)[O-])cc1 | 7.83
24 | Cc1ccc2c(c1[O-])-c1c-2ccc(C)c1O | 11.5

Row | SMILES | pKa
25 | CCC1(C)CC(=O)NC1=O (stereo not drawn) | 9.34
26 | Cc1ccc(C(=O)O)cc1Cl | 4.06
27 | O=c1oc2cc(O)ccc2cc1-c1nc2ccccc2s1 | 7.02
28 | NC(=O)c1c(CC(=O)O)n[nH]c1N | 3.5
29 | N#CC[N+](=O)[O-] | 4.86
30 | [O-]c1cc(O)cc[nH+]1 | 6.5
31 | Cn1c[nH+]cc1C[C@H](NC(=O)CC[NH3+])C(=O)O | 2.64
32 | C[NH+](C)CCCNC(=O)/C=N/O | 8.68
33 | CCSc1nccc(O)[n+]1C | 0.9
34 | CN(C)C(=O)OCC(=O)O | 3.01
35 | CC(C)(C)CCCCc1ccc(O)cc1 | 11.2
36 | O=C(NBr)c1ccccc1 | 7.3
37 | Nc1ncc2[nH]cnc2n1 | 9.93
38 | Oc1ccc(F)cc1 | 9.88
39 | [NH3+]C(Cc1c[nH]c(=S)[nH]1)C(=O)O (stereo not drawn) | 1.84
40 | O=S1(=O)Nc2cccc3cccc1c23 | 6.2
41 | O=C(O)c1cc([N+](=O)[O-])ccc1C(=O)c1ccccc1 | 2.86
42 | COC(=O)C1=C(C(=O)OC)CC=C1 | 5
43 | CC=C=CC(C)(C)C(=O)O | 4.58
44 | COc1ccc(CCC(=O)O)cc1 | 4.72
45 | CC(C)(C)S | 11.1
46 | O=[N+]([O-])c1ccc2[nH]cnc2c1 | 10.6
47 | Cn1nc(Cl)nc1NN=O | 4.03
48 | COc1cccc(OC)c1-c1nc2ncccc2[nH]1 | 11.3

Row | SMILES | pKa
49 | O=C([O-])[C@@H](NCC[NH2+][C@@H](C(=O)[O-])c1ccccc1O)c1ccccc1O | 8.76
50 | O=C(O)C(c1ccc(-c2ccccc2)cc1)C(O)c1ccccc1 (stereo not drawn) | 4.25
51 | O=C(O)[C@@H]1CC[C@H](C(=O)O)[Se]1 | 3.55
52 | O=C(O)C1CCCC1 | 4.99
53 | NNC(=O)c1ccccc1N | 12.8
54 | O=C(O)c1cccc(Oc2ccccc2)c1 | 3.95
55 | Sc1ccc(Br)cc1 | 5.8
56 | O=C(O)[C@@H]1O[C@H](Oc2ccc(I)cc2)[C@@H](O)[C@H](O)[C@H]1O | 3.28
57 | CCOP(=O)(O)NS(=O)(=O)c1ccccc1 | 1.8
58 | O=Cc1ncnc2nc[nH]c12 | 8.8
59 | CC(C)(C)c1ccc2c(c1)C(=O)NC2=O | 10.2
60 | CC(C)(C)O | 17
61 | CC1=C(C)/C(=C(\C)C(=O)O)CC1=O | 3.1
62 | Nc1ccc(S(=O)(=O)Nc2ccn(-c3cccc([N+](=O)[O-])c3)n2)cc1 | 7.03
63 | CC[C@@H]1OC(=O)[C@@H](C)[C@H](O)[C@@H](C)[C@H](O[C@H]2O[C@@H](C)C[C@@H]([N+](C)(C)O)[C@@H]2O)[C@]2(C)C[C@H](C)C3(O[C@]1(C)C=C3C)O2 | 4.3
64 | C[n+]1cccc(S)c1 | 2.27
65 | OCc1cccc(CO)c1O | 9.66
66 | O=[N+]([O-])c1n[nH]c(-n2cncn2)n1 | 2
67 | Cc1cccc([P+](c2cccc(C)c2)(c2cccc(C)c2)C2c3ccccc3-c3ccccc32)c1 | 9.55
68 | CCO[C@H]1C[C@H]1C(=O)O | 4.83
69 | O=C(O)c1ccc(Br)cc1 | 3.99
70 | O=C1COC(=O)C1[N+](=O)[O-] (stereo not drawn) | 1.68
71 | O=C1Oc2ccccc2C(=O)C1Cc1c([O-])c2ccccc2oc1=O (stereo not drawn) | 8.3
72 | COc1c(O)cccc1CN | 10.5

Same assay, conditions: basic group

Row | SMILES | pKa
73 | C(=C\C[NH+]1CCCCC1)/CN1CCCCC1 | 7.9
74 | CC(c1ccccc1)N1CC(O[Si](C)(C)C)C1 (stereo not drawn) | 7.82
75 | CC(C)N1C2CCCC21 (stereo not drawn) | 8.31
76 | O=C(O)c1nccs1 | 2.57
77 | CCOCCn1c(N2CCCN(CCCCn3cc(C(=O)[O-])cn3)CC2)nc2ccccc21 | 8.5
78 | CC(C)(CN)CN | 10.2
79 | Nc1nc(N)c2[nH]c(N)[nH+]c2n1 | 2.41
80 | CC(CN)C(=O)[O-] (stereo not drawn) | 9.91
81 | CN(C)/C=N/c1ccc(Cl)cc1 | 8.46
82 | COc1cc(OS(C)(=O)=O)ccc1-c1cn2cccnc2n1 | 3.95
83 | O=[PH]([O-])C([NH2+]Cc1ccncc1)c1ccccc1O (stereo not drawn) | 3.25
84 | C=C(C)C(=O)OCCNCCCC | 9.12
85 | COc1ccc(CC(C)N)cc1 (stereo not drawn) | 9.53
86 | CN(C)CCc1nnn[n-]1 | 9.39
87 | CC1(C)S[C@H]2C(C(=O)[O-])N=C(CCCC(N)C(=O)[O-])N2C1C(=O)[O-] (stereo partly drawn) | 10.3
88 | CCCCCCCCCCCCCCN(CCO)CC(O)CC (stereo not drawn) | 6.1
89 | C[C@H](N)C(=O)N[C@@H](Cc1c[nH]cn1)C(=O)[O-] (H-Ala-His-OH) | 8.08
90 | Nc1ccc2nnc3ccccc3c2c1 | 6.68
91 | NCCC[NH2+]CCO | 8.19
92 | COc1ccc(-c2cnc(-c3ccc(N)cc3)o2)cc1 | 3.22
93 | NCCCc1ccccc1O | 9.51
94 | Cc1cc(C)n(-c2ccccn2)n1 | 1.89
95 | Cc1cnc2c(c1)cc(C)c1cc(C)cnc12 | 5.27

Row | SMILES | pKa
96 | CN1[C@@H]2CC[C@H]1C[C@H](O)C2 | 10.3
97 | OCCN(CCO)c1ccccc1 | 4.11
98 | CCNCc1ccccc1 | 9.75
99 | c1cc(C2CCCN2)nc(C2CCCN2)c1 (stereo not drawn) | 10.1
100 | C/C(=C(\CCO)SSCCC(C)C)N(C=O)Cc1cnc(C)nc1N | 5.58
101 | CCc1cccnc1 | 5.57
102 | COc1ccc(C2CN2)cc1 (stereo not drawn) | 8.7
103 | [NH3+]C(CC(=O)[O-])c1ccccn1 (stereo not drawn) | 2.94
104 | CCCN(CCC)CC(=O)Nc1c(C)cccc1C | 7.68
105 | c1ccc2c(c1)CCC2N(c1ccc2ccccc2c1)C1CCc2ccccc21 (stereo not drawn) | 0.25
106 | COc1ccc2c(c1)C([P+](c1ccccc1)(c1ccccc1)c1ccccc1)c1ccccc1-2 (stereo not drawn) | 9.09
107 | [NH3+]CCCNCCC[NH3+] | 8.08
108 | NCC[S-] | 10.7
109 | Brc1ccc(-c2cnc(-c3ccccc3)o2)cc1 | 0.65
110 | COc1cc(S(N)(=O)=O)cc(C(=O)N[C@@H]2C[C@H]3CC[C@@H](C2)N3Cc2ccccc2)c1OC | 8.87
111 | Cc1cc(N)ccc1[N+](=O)[O-] | 1.64
112 | CCCCCCCCCCCCCCCNCCCCCCCCCCCCCCC | 11
113 | CNCc1ccccn1 | 8.96
114 | Cc1cc(C(c2ccc(N)cc2)c2ccc([NH3+])cc2)ccc1[NH3+] | 2.6
115 | C=C(C)C(=O)OCCN(CC)CC | 8.66
116 | CC12CN3CC(C)(C1)CC(C)(C3)C2 | 10.7
117 | C#CC(C)(C(C)C)N(C)C(C)C (stereo not drawn) | 8.7
118 | CO/N=C(\C)CC(C)(C)NCC[NH2+]C(C)(C)C/C(C)=N/O | 6.28

Row | SMILES | pKa
119 | Cn1c(=O)c2c([O-])cnnc2n(C)c1=O | 8.51
120 | Nc1ncc2[nH]cnc2n1 | 3.8
121 | CN(C)CCCCC(=O)Oc1ccc([N+](=O)[O-])cc1 | 9.9
122 | Nc1nccs1 | 5.44
123 | Cc1ccc(NCCNc2ccc(C)cc2)cc1 | 4
124 | CCOC(=O)c1cnc2cc([N+](=O)[O-])ccc2c1[O-] | 9.32
125 | Nc1ccc2[nH]cnc2c1 | 6.11
126 | CN1CCN(C(=O)c2ccccc2)CC1 | 6.78
127 | CC1CCCN(C(C)C=C(c2cccs2)c2cccs2)C1 (stereo not drawn) | 8.28
128 | CC(C)Nc1ccccc1 | 5.67
129 | CCC(=O)C(c1ccccc1)(c1ccccc1)C(C)CN1CCOCC1 (stereo not drawn) | 7.12
130 | O=[N+]([O-])c1cnc([O-])[nH+]c1[O-] | 5.42
131 | CC[C@]12CCC[NH+]3CC[C@@]4(c5cccc(OC)c5N[C@H]4CC1)[C@@H]32 | 2.7
132 | NNC(=O)c1ccc(N)cc1 | 3.56
133 | N=C(SCc1ccccc1)c1ccccc1 | 4.43
134 | CN(C)CCCC(=O)Oc1cccc([N+](=O)[O-])c1 | 9.82
135 | O=[N+]([O-])c1ccc2[nH]cnc2c1 | 3.77
136 | c1ccc(-c2ccc[nH+]c2)nc1 | 1.52
137 | COc1cccc(OC)c1-c1nc2ncccc2[nH]1 | 4.85
138 | O=C([O-])[C@@H](NCC[NH2+][C@@H](C(=O)[O-])c1ccccc1O)c1ccccc1O | 6.36
139 | Cc1ccccc1/C(=N/CCC[NH+](C)C)c1ccccc1 | 4.29
140 | Cc1nnc(C)c(C)n1 | 2.85
141 | CNCC[S-] | 10.8

Row | SMILES | pKa
142 | COc1cnnc2ccccc12 | 3.21
143 | NNC(=O)c1ccccc1N | 3.47
144 | CCSC(=O)c1ccc(OC)cc1 | -3.77
145 | Cn1cnc2ncnc([O-])c21 | 8.8
146 | c1ccc(CC2=NCCC2)cc1 | 6.9
147 | [S-]CCNCc1ccccc1 | 10.3
148 | CCCCCn1ccnc1 | 7.12
149 | c1ccc2cc3ncccc3cc2c1 | 4.92
150 | Cc1cc(-c2ccc(N)c(C)c2)ccc1N | 4.64
151 | COc1ccc(-c2nc3cnccc3[nH]2)c(OC)c1 | 6.49
152 | O=Cc1ncnc2nc[nH]c12 | 2.4
153 | Cc1cc(NCCC[NH+](C)C)c2c([N+](=O)[O-])cccc2n1 | 6.41
154 | OC1(c2ccco2)CN2CCC1CC2 (stereo not drawn) | 9.06
155 | CCOc1ccc2nc(/C=C/C=C/c3ccccc3)cc(N)c2c1 | 9.5
156 | COc1cccc2cccnc12 | 4.88
157 | C#CC(C)(C)Nc1ccccc1 | 4.26
158 | CNC(C)CC1CCCCC1 (stereo not drawn) | 10.5
159 | Nc1ccc2c(c1)-c1c(ccc3ccccc13)C2 | 4.67
160 | [S-]c1cnc2ccccc2[nH+]1 | -1.11
161 | Cc1cc([O-])ncn1 | 9
162 | CC(C)(N)C(=O)O | 10.2
163 | COc1c(O)cccc1CN | 8.89

From the pKa sets of Baltruschat and Czodrowski (2020)
